Laboratory results as given in patent US9192552B2, “Personal care compositions with improved solubility of a solid UV active” (priority 2011, dated 2015).
Like-named read-outs stand apart in the source and are kept apart here.

Assays:
[1] = Solvency test: solubility of bis-ethylhexyloxyphenol methoxyphenyl triazine (bemotrizinol) in solvent, visible crystals after storage
Experimental: (§1) In the testing provided below, “soluble” (or “solubilize”), in relation to the solubility of a solid solute being tested, means that no visible crystals may be seen after a prescribed storage period at a storage condition. The storage period can vary. Suitable storage periods include about 24 hours, about 1 week, and about 30 days. Suitable storage conditions include ambient conditions or cold storage at 5° C. (approximately 1 atm). In certain embodiments, solubility may be determined after a 24 hour storage period at ambient conditions. In other embodiments, solubility may be determined after 20 days in cold storage. Other testing parameters may include storage for prolonged time periods (e.g., 30 day, 50 days, 60 days, 90 days) and at variable temperatures (e.g., 5° C., 50° C.).
The solvency of an isosorbide diester within the scope of the present invention was tested against two conventional, industry standard solvents. […] Solubility was also evaluated for samples stored for 7 day at 5° C. followed by equilibration to ambient conditions.

[2] = Solvency test: solubility of butyl methoxydibenzoylmethane (avobenzone) in solvent, visible crystals after storage
Experimental: as §1
The solvency of an isosorbide diester within the scope of the present invention was tested against two conventional, industry standard solvents. […] Various ratios of the solute:solvent were prepared by mixing solvents and the solid sunscreen (solute) and heating to 70° C. Upon reaching 70° C., the examples may be mixed for about 10 minutes. The mixtures are placed in a covered vial and cooled to the storage temperature. Solubility was evaluated for samples stored 24 hours after mixing at room temperature. […]

[3] = solute bemotrizinol (Tinosorb S), 24 hour rest at Ambient Conditions
[4] = solute bemotrizinol (Tinosorb S), 30 day storage at 5° C.
[5] = solute avobenzone (PARSOL 1789), 24 hour rest at Ambient Conditions

CCCCCCCCCCCC(=O)N(C)CC(=O)OC(C)C [Isopropyl lauroyl sarcosinate, isopropyl lauroyl sarcosinate, reference compound]
Solubility at Solute:Solvent Ratio 1:4 [1]: S | Solubility at Solute:Solvent Ratio 1:6 [1]: S | Solubility at Solute:Solvent Ratio 1:8 [1]: S | Solubility at Solute:Solvent Ratio 1:2 [2]: S | Solubility at Solute:Solvent Ratio 1:3 [2]: S | Solubility at Solute:Solvent Ratio 1:4 [2]: S

CCCCCCCC(=O)OC1COC2C(OC(=O)CCCCCCC)COC12 (stereo not shown) [Isosorbide dicaprylate, isosorbide dicaprylate]
Solubility at Solute:Solvent Ratio 1:3 [1, 3]: S | Solubility at Solute:Solvent Ratio 1:4 [1, 3]: S | Solubility at Solute:Solvent Ratio 1:6 [1, 3]: S | Solubility at Solute:Solvent Ratio 1:8 [1, 3]: S | Solubility at Solute:Solvent Ratio 1:3 [1, 4]: S | Solubility at Solute:Solvent Ratio 1:6 [1, 4]: S | Solubility at Solute:Solvent Ratio 1:8 [1, 4]: S | Solubility at Solute:Solvent Ratio 14 [1, 4]: S | Solvency compared with the industry leading solvents ([1]; solute bemotrizinol, versus isopropyl lauroyl sarcosinate and C12-15 alkyl benzoate): superior to the industry leading solvents | Solubility at Solute:Solvent Ratio 1:3 [2, 5]: S | Solubility at Solute:Solvent Ratio 1:4 [2, 5]: S | Solubility at Solute:Solvent Ratio 1:4 ([2]; solute avobenzone (PARSOL 1789), 30 day storage at 5° C.): S | Solvency compared with the industry leading solvents ([2]; solute avobenzone, versus isopropyl lauroyl sarcosinate and C12-15 alkyl benzoate): equivalent to the industry leading solvents
